In patent US20250017964A1, “ENGINEERING OR INDUCING PDGF AND/OR PDGFR SIGNALING TO ENHANCE NK CELL THERAPY” (City of Hope, priority 2021, published 2025):

Tests used:
PDGFRB = PDGFRB mRNA levels by qPCR; type: cell-based, human; conditions: primary NK cells, IL-15 10 ng/ml
Protocol: FIGS. 2A-2I. IL-15-induced PDGFRβ expression is mediated by PI3K/AKT signaling. (A-B) Primary NK cells were treated with IL-15 (10 ng/ml) for the indicated times. mRNA levels of PDGFRB at different time points (A) (n=3) or at 1 h (B) (n=10) were examined by qPCR. (C-D) Primary NK cells were pretreated with actinomycin D (ActD, 5., g/ml) (C) or cycloheximide (CHX, 20 μg/ml) (D) for 1 h, washed twice with RPMI-1640, and then treated with IL-15 (10 ng/ml) for 24 h. DMSO was used as a control. Expression levels of PDGFRβ were examined by flow cytometry (n=5). Data shown are representative histograms and percentage of inhibition with the equation: % inhibition=100×[1−(DMSO-inhibitor)/DMSO]. […] (G-I) Binding of p65 to the PDGFRB promoter in IL-15-treated NK cells (G) or resting NK cells (H) as determined by ChIP-qPCR or PCR (I) (n=3). […]
(§1) RNA was isolated using an RNeasy Mini Kit (QIAGEN) and reversely transcribed to cDNA with a PrimeScript RT Reagent Kit with gDNA Eraser (Takara Bio) according to the manufacturer's protocol. mRNA expression levels were analyzed using SYBR Green qPCR Master Mix and a QuantStudio 12K Flex Real-Time PCR System (both from Thermo Fisher Scientific). […]

PDGF-D = PDGF-D expression in NK cells (qPCR, flow cytometry, immunoblotting, ELISA); type: cell-based, human
Protocol: FIGS. 5A-5J. IL-15 induces PDGF-D expression in an autocrine manner. (A) mRNA levels of PDGFA, PDGFB, PDGFC, and PDGF-D in T cells, B cells, and NK cells were analyzed using the BioGPS online tool. (B) mRNA levels of PDGFA, PDGFB, PDGFC, and PDGF-D in T cells, B cells, and NK cells were examined by qPCR (n=10). (C) Primary NK cells were treated with IL-15 (10 ng/ml) for the indicated times. mRNA levels of PDGF-D were examined by qPCR (n=3). (D-E) Representative dot plots and percentages of PDGF-D levels in NK cells after IL-15 (50 ng/ml) treatment for 24 h. Resting NK cells were used as control (n=5). […] (I-J) Binding of p65 to the PDGF-D promoter in IL-15 treated (I) or resting NK cells (J) as determined by ChIP-qPCR (n=3). Data represent three independent experiments. Data shown are means±SD. […]
Cells were stained with the indicated cell-surface markers and/or fixed/permeabilized using a Fixation/Permeabilization Kit (eBioscience). […] Data were analyzed using NovoExpress software (Agilent Technologies).
as §1

IL-15: recombinant human IL-15 (200-15); recombinant murine IL-15 in the mouse NK cell test
mRNA levels of the PDGFRB gene (PDGFRB): increased significantly | mRNA levels of PDGF-D in NK cells (PDGF-D; IL-15 10 ng/ml, qPCR): significantly increased | protein levels of PDGF-D in NK cells (PDGF-D; IL-15 50 ng/ml 24 h, flow cytometry, immunoblotting, ELISA): significantly increased
